Data set [1] has as its system loblolly pine lines LP1 and LP3. The data set can be described thus: Effect of galactose and galactose-containing sugars during proliferation and prematuration on SE yield. The settings on record: for # SE/g FW / Amount of tissue at the end of the preculture II stage: 1% sucrose, 1.5% maltose, 1.5% lactose or 0.75% galactose. Type of data set: cell-based, Pinus taeda (loblolly pine). Further details: Amount of tissue at the end of the preculture II stage: unit not given here. How it is done: The finding that loblolly pine cultures were capable of utilising galactose is unique. In order to further investigate these phenomenon two lines, LP1 and LP3, were cultured on semi-solid TX medium containing 1.0% lactose and 0.5% sucrose. Cultures were maintained by subculturing the embryogenic tissue every 10 to 14 days to fresh media. All cultures were incubated at 23° C. in the dark. Suspension cultures were initiated as described in Example 3, however, TX medium was supplemented with either 1% sucrose, 1.5% maltose, 1.5% lactose, or 0.75% galactose. These cultures were maintained in liquid media for 4 weeks by weekly transfers to fresh maintenance or prematuration media. After the 4˜week period, 1 ml of the liquid medium containing 0.1 g of tissue consisting of early stage somatic embryos was plated on each […] plates containing ½ LV maturation medium. This medium contained 120 μM ABA and 6.0% sucrose and 1% Phytagel. Eight to ten weeks later, mature somatic embryos were counted and treatments were evaluated based on the number of somatic embryos per gram fresh weight (Table 5).

The test system of data set [2] is radiata pine megagametophytes containing immature zygotic embryos. The data set can be described thus: Effect of carbon source on induction of radiata pine. Type of data set: cell-based, Pinus radiata (radiata pine). How it is done: Female gametophytes containing immature zygotic embryos were used as explants. The cones were surface sterilised in 10% bleach solution for 15 min. They were rinsed 3 times with sterile water, air dried and stored in polyethylene bags at 4° C. until used. Seeds were sterilised in 3% hydrogen peroxide containing 0.1% Tween 20 and rinsed in sterile deionized water. Megagametophytes containing the immature embryos were plated on MSG (standard radiata pine medium containing sucrose, Table B) and on TX medium (Table A) supplemented with 2.2 mg/l 2,4-D, 1 mg/l BA and 0.3% Phytagel and containing 1.5% galactose and 0.5% sucrose. Casein hydrolysate was reduced to 1000 mg/l (TXR medium).
Cultures were maintained on the two media by subculturing the embryogenic tissue every 10 to 14 days to fresh media. All cultures were incubated at 23° C. in the dark. Suspension cultures were initiated as 2 g of tissue were introduced to 50 ml of TXR liquid medium containing 1.0% sucrose. […]
One ml of TXR medium containing 0.1 g tissue consisting of early stage somatic embryos was plated on modified ½ LV maturation medium (Table C) in which glutamine was reduced to 500 mg/l and casein hydrolysate to 1000 mg/l. […] Twelve to fourteen weeks later, mature somatic embryos were counted and treatments were evaluated based on the number of somatic embryos per gram fresh weight.

Data set [3] relates to radiata pine lines RP1, RP2, RP3, and RP4. The experiment in a line: Effect of carbon source on somatic embryo development of radiata pine in liquid cultures. Type of data set: cell-based, Pinus radiata (radiata pine). The settings on record: for # SE/g FW ± sd / Grams FW at the end of proliferation stage (from 1.5 g): 1.0% sucrose or 3.0% galactose in TXR prematuration media I and II; for tissue morphology: tissue induced and maintained on MSG sucrose or TXR galactose. The source says:
Tissue induced on MSG containing sucrose was further maintained on MSG sucrose medium, and tissue induced on TXR galactose was maintained on TXR medium containing galactose as described in Example 6. The tissue morphology of the lines induced on galactose was different from that induced on sucrose. […] The lines used in this study were RP1, RP2, RP3, and RP4.
Suspension cultures were initiated as described in Example 6. These cultures were maintained in liquid media for 20-28 days by transfers to fresh maintenance medium every 10 to 14 days. Up to five fold increase of the tissue was estimated at the end of each 10 to 14 day transfer.
In order to study the effect of galactose on embryo development after the proliferation stage, 2 g tissue was further transferred to 250 ml flasks, containing 50 ml of TXR prematuration medium I supplemented with either 1.0% sucrose or 3.0% galactose. As with loblolly pine cultures, prematuration I requires reduction of hormones either by reducing the auxin and cytokinin concentrations to optimally about 1/20 of the concentration of proliferation step, or by adding charcoal at about 0.01 to 1%, or a combination of both.
After the 10-14 day period, 1.5 g tissue was transferred to 250 ml flasks containing 50 ml TXR prematuration medium II to which either 1.0% sucrose or 3.0% galactose and 90 μM ABA were added.
Early stage somatic embryos were collected after 10 to 14 days and matured on modified ½ LV maturation medium as described in Example 6.

In data set [4] the test system is Douglas fir embryogenic tissue, cell line DF-2. The data set can be described thus: Effects of carbohydrates on liquid maintenance of Douglas fir embryogenic tissue. The conditions noted are these: 3 weeks suspension maintenance/bulking-up, 0.5% galactose, 1% lactose, 0.5% mannitol. The format is cell-based, Pseudotsuga menziesii (Douglas fir). The protocol: The culture medium for Douglas fir was TX medium (see Table A) with the following additives: glutamine 100 mg., Casein hydrolysate 100 mg., and pH 5.8. The following compounds were added into the basal medium for Douglas fir somatic embryo development at different stages: • 1) Induction medium: 18 μM 2,4-D and 9 μM BA, phytagel 0.28%, sucrose 1% • 2) Solid maintenance medium: 9 μM 2,4-D and 4.5 μM BA, phytagel 0.28%, sucrose 1%. • 3) Liquid maintenance and bulking-up medium: 9 μM 2,4-D and 4.5 μM BA, different carbon sources for experiments. • 4) Liquid pre-treatment medium: 20 (first week) or 30 μM ABA (second week), 10% PEG4000 (first week) or PEG1500 (second week), different carbon sources as described in examples below. • 5) Solid maturation media: TX (Table A) plus 0.02% NH4NO3 • Medium I. 40 μM ABA, 10% PEG 1500, maltose 2.5%, phytagel 0.6% • Medium II. 60 μM ABA, 10% PEG1500, maltose 2.5% and sucrose 1%, phytagel 0.8% • Medium III. 70 μM ABA, 6% PEG1500, sucrose 6%, phytagel 1%.
Embryogenic tissue was induced from immature zygotic embryos. The cones and seeds were surface-sterilised as described for pines, and embryos were dissected out from megagametophytes. The embryos, with the attachment of suspensors to their megagametophytes, were placed on the surface of induction medium. The culture was kept in darkness at 23° C. Embryogenic tissue was sub-cultured once every two weeks onto solid maintenance medium.
Embryogenic tissue of Douglas fir was collected from solid maintenance culture and one gram of tissue was transferred into a 200 ml flask containing 50 ml TX (see Table A) liquid maintenance medium. The liquid maintenance medium was supplied with different sugars (Table 8).
The tissue was drained, weighed and sub-cultured once per week. During a culture period of three weeks, the highest tissue growth was found in the culture with glucose as the major carbon source. The media containing sucrose, maltose and galactose also supported a fast tissue growth. With these latter sugars, tissue increased to 68 to 100 fold in three weeks. Tissue grew little in the media containing lactose or mannitol. […] Similar results were obtained within two cell lines, DF-7A and DF-2.

The subject of data set [5] is Douglas fir embryogenic tissue. The experiment in a line: Medium osmolarity before and after one-week tissue inoculation. The settings on record: medium with 0.5% galactose, 1% lactose, 0.5% mannitol or 0.5% glucose. Type of data set: cell-based, Pseudotsuga menziesii (Douglas fir). The source says:
More change of medium osmolarity occurred during week 2 than week 1. The medium osmolarity changed little when lactose or mannitol was used in the media.

Data set [6] deals with Suspension cultures of loblolly lines LP1, LP2, LP3, LP4 and LP5. The data set can be described thus: Effect of carbon source on liquid maintenance: growth rate and yield of somatic embryos. The format is cell-based, Pinus taeda (loblolly pine). The conditions noted are these: 1% sucrose; for # SE/g FW ± sd: 1.5% maltose or 1.5% lactose for 4 weeks in liquid, then 8-10 weeks on 1/2 LV maturation medium; for Average amount of tissue produced after 4 weeks in liquid (FW g): 1.5% maltose or 1.5% lactose in maintenance and prematuration I and II, started with 2 g. How it is done:
Suspension cultures of loblolly lines LP1, LP2, LP3, LP4 and LP5 were started with 2 g of tissue introduced to 50 ml of TX liquid medium containing different sugars—1% sucrose, 1.5% maltose, or 1.5% lactose. These cultures were maintained in the same liquid media for 2 weeks by weekly transfers to fresh maintenance medium containing the above sugars. Then, 2 g of tissue produced in each maintenance medium was transferred to prematuration media I, containing the same carbon source as the maintenance media. After one week, 1.5 g of tissue from each prematuration medium I was transferred to prematuration media II containing the same sugars. After the 4 week period in liquid media, early stage somatic embryos were collected and plated on ½ LV maturation medium containing 120 μM ABA and 6.0% sucrose and 1% Phytagel. Eight to ten weeks later, mature somatic embryos were counted and treatments were evaluated based on the number of somatic embryos per gram fresh weight (SE/g FW). Table 2 summarises the tissue yield at the end of the 4-week period and the number of mature somatic embryos produced for each line.

In data set [7] the test system is loblolly pine embryogenic tissue. The experiment in a line: Effect of carbon source on solid maintenance of loblolly pine. Type of data set: cell-based, Pinus taeda (loblolly pine). The conditions noted are these: semi-solid TX medium; 1% sucrose, or 1.5% lactose and 0.025% glucose. How it is done: Tissue induced on sucrose from Example 1 was further maintained on the semi-solid TX medium containing 1% sucrose, and tissue induced on lactose was maintained on semi-solid TX medium containing 1.5% lactose and 0.025% glucose. The tissue morphology of the lines induced on lactose was different from the ones induced on sucrose. […] In order to further increase the proliferation rate, 0.5% sucrose was added to the TX 1.5% lactose-containing medium in place of 0.025% glucose. This medium provided a reasonable bulk-up rate, and growth of embryos was more synchronized than in the 1% sucrose medium.

The mark [8] stands for this setting: additional glucose 0%, 0.5% glucose, 1% sucrose, 1% maltose.

Structures are written as SMILES.

The source of these data is patent US7906334B2, “Method for reproducing conifers by somatic embryogenesis using lactose as a carbon source” (Cellfor Inc., priority 2003, dated 2011).

As for `O=C[C@H](O)[C@@H](O)[C@@H](O)[C@H](O)CO` [Galactose], in data set [1] (line LP1), the “# SE/g FW” value was found to be 216 ± 8 SE/g FW and the “Amount of tissue at the end of the preculture II stage” value (“Amount … of the preculture II stage” for short) was 59.45. Besides, in data set [1] (line LP3), the “# SE/g FW” value was determined as 172 ± 5 SE/g FW and the “Amount … of the preculture II stage” value was found to be 8.65. The “Induction success, galactose compared with sucrose medium” value in data set [2] (galactose as carbon source) is reported as “greater than three times higher”. In data set [2] (tissues induced on galactose), the “subsequent yields of mature embryos, galactose compared with sucrose medium” value was “almost double”. In data set [3], the “# SE/g FW ± sd” value is recorded as 405.3 ± 10 SE/g FW; the “Grams FW at the end of proliferation stage (from 1.5 g)” value was found to be 9.5 ± 2 g; the tissue morphology result is “more early stage immature embryos and a limited amount of suspensor type of surrounding tissue”. In data set [3] (galactose as carbon source), the Tissue growth increase entry is recorded as “more than 5 times” and the “number of mature somatic embryos at the end of maturation” value is “doubled”. For the same molecule, in data set [4] (setting [8]), the “Tissue growth (fold, mean ± SD)” value stood at 68.64 ± 4.58 fold. Also, the “Tissue growth (fold, mean ± SD)” value in data set [4] (additional glucose 0.025%) was determined as 97.02 ± 2.67 fold. The “Osmolarity before inoculation (mmol/kg, mean ± SD)” value in data set [5] was 71.67 ± 1.15 mmol/kg.

For the molecule `OC[C@H]1O[C@H](O[C@H]2[C@H](O)[C@@H](O)[C@H](O)O[C@@H]2CO)[C@H](O)[C@@H](O)[C@@H]1O` [Maltose, maltose], in data set [6], the “# SE/g FW ± sd” value was determined as 209 ± 28 SE/g FW and the “Average amount of tissue produced after 4 weeks in liquid (FW g)” value is on record as 204.45 g. For the same molecule, in data set [1] (line LP1), the “# SE/g FW” value is listed as 106 ± 4 SE/g FW and the “Amount … of the preculture II stage” value amounted to 232.18. Besides, in data set [1] (line LP3), the “# SE/g FW” value came out at 160 ± 5 SE/g FW and the “Amount … of the preculture II stage” value is reported as 118.22. In addition, the “Tissue growth (fold, mean ± SD)” value in data set [4] (setting [8]) turned out to be 85.01 ± 1.71 fold.

For the molecule `OC[C@H]1O[C@@](CO)(O[C@H]2O[C@H](CO)[C@@H](O)[C@H](O)[C@H]2O)[C@@H](O)[C@@H]1O` [Sucrose, sucrose], the tissue morphology entry in data set [7] was “Predominantly suspensor type tissue and very few embryos”. In data set [6], the “# SE/g FW ± sd” value came out at 126 ± 20 SE/g FW and the “Average amount of tissue produced after 4 weeks in liquid (FW g)” value came to 592.06 g. In addition, in data set [1] (line LP1, as stated in the text), the embryos produced came out at 11 embryos. Moreover, in data set [1] (line LP1), the “# SE/g FW” value turned out to be 11 ± 3 SE/g FW and the “Amount … of the preculture II stage” value is listed as 121.22. In addition, the “amount of tissue at the end of the 4 week-liquid period” value in data set [1] (line LP3, sucrose as sole carbon source) stood at 1278.18 g. Further, in data set [1] (line LP3), the “# SE/g FW” value was determined as 100 ± 6 SE/g FW and the “Amount … of the preculture II stage” value is given as 1278.18. In addition, in data set [3], the “# SE/g FW ± sd” value is on record as 213.3 ± 6 SE/g FW; the “Grams FW at the end of proliferation stage (from 1.5 g)” value came out at 11.05 ± 2 g; the tissue morphology entry is “predominantly suspensor type tissue and very few embryos”. Also, the “Tissue growth (fold, mean ± SD)” value in data set [4] (setting [8]) turned out to be 100.94 ± 12.0 fold.

`OC[C@@H](O)[C@@H](O)[C@H](O)[C@H](O)CO` [mannitol, reference compound]: the “Tissue growth (fold, mean ± SD)” value in data set [4] (setting [8]) is listed as 1.60 ± 0.13 fold; in data set [4] (additional glucose 0.025%), 3.34 ± 0.22 fold. Further, in data set [5], the “Osmolarity before inoculation (mmol/kg, mean ± SD)” value turned out to be 76 ± 1 mmol/kg.
